In ChEMBL document CHEMBL1149928, “Stabilization of a prostaglandin tertiary allylic alcohol system by fluorine: synthesis, acid stability studies and pharmacology of a 16-fluoromethyl analog of SC-46275” (1992):

How the values were obtained:
Canis familiaris = assay: Compound was evaluated for the gastric antisecretory activity in food stimulated Pavlov pouch dogs by intrapouch administration; type: functional; conditions: Canis lupus familiaris, Stomach
Rattus norvegicus = assay: Compound was evaluated for the diarrheal effects in adult male rats by intragastric administration; type: functional; conditions: po

Structure (SMILES) | ED50 (Canis familiaris) | ED50 (Rattus norvegicus)
COC(=O)CC/C=C\CC[C@H]1C(=O)C[C@@H](O)[C@@H]1/C=C/C[C@@](C)(O)/C=C/C1=CCCC1 | 0.01 µg/kg | > 3160 µg/kg
COC(=O)CC/C=C\CC[C@H]1C(=O)C[C@@H](O)[C@@H]1/C=C/C[C@@](O)(/C=C/C1=CCCC1)CF | 0.05 µg/kg | > 3160 µg/kg
